Measurements: US10160785B2, “Antimicrobial peptides and their use for the treatment of topical infections” (priority 2015, dated 2018)
Where a SMILES comes first, the peptide text is derived from it.

Key:
[1] = test system: Candida albicans (Olomouc) biofilm; assay: C. albicans biofilm, remaining metabolic activity (XTT); assay type: cell-based
Method: Candida albicans (Olomouc) was sub-cultured overnight in YPD medium (10 g yeast extract (DIFCO, USA), 20 g peptone (OXOID), 20 g glucose (Penta) dissolved in 1 L of distilled water) at constant shaking (100 RPM) at 37° C. Next day, the overnight culture was diluted 1:100 into fresh YPD medium and incubated at constant shaking (200 RPM) at 37° C. until the mid-exponential growth phase was reached. Then the cells were harvested and washed twice by centrifugation in physiological solution (5000 RPM; 5 min). Cells were suspended in sterile salt solution and their optical density was determined at 600 nm.
A final yeast suspension was prepared at a cell density of 1×10^6 CFU (corresponding to optical density of 0.17 at 600 nm) in RPMI 1640 medium with L-glutamine (BioSera), NaHCO3 (2 g/l; Penta) and 0.165 mol.l^−1 MOPS (Duchefa)—further as RPMI broth medium 1.
Biofilms were formed on commercially available sterile, polystyrene, flat-bottomed, 96-well microtiter plates (TPP, SW). Cell suspension (100 μl) was pipetted into selected wells of a microtiter plate and incubated without shaking for 2 hours at 37° C. Afterwards, the wells were washed twice with sterile PBS buffer (1.44 g Na2HPO4, 0.24 g KH2PO4, 0.2 g KCl and 8 g NaCl in 1 l distilled water, pH=7; Penta). Fresh RPMI broth medium 1 (100 μl) was added to each well and the plate was sealed with parafilm and incubated without shaking for 48 hours at 37° C.
Planktonic and non-adherent cells were removed by threefold washing of the biofilm with sterile PBS buffer (200 μl). A twofold serial dilution was used to reach required peptide concentration (in RPMI broth medium 1) in each well. Peptide concentrations range was between 0.39-200 μmol.l^−1. Plates were then sealed with parafilm and incubated for 20 hours at 37° C.
The metabolic activity of surviving Candida cells in the treated biofilm was determined by staining with XTT (2,3-Bis(2-methoxy-4-nitro-5-sulphophenyl)-2H-tetrazolium-5-carboxanilide). Stock solution of PMS (phenazine methosulfate; 7.5 g/l; SIGMA, Czech Republic) stored at −20° C. was diluted in PBS buffer 1:100. Diluted PMS was further mixed (2:25) with stock solution of XTT (0.5 g/l; Alchimica, Slovakia) dissolved in PBS/RPMI broth medium (1:1). Mixture (100 μl) of PMS and XTT was added into treated biofilm in the wells and incubated for 90 min at 37° C. Then the intensity of staining in each well was measured as absorbance at 540 nm on a Tecan Infinite M200 Pro reader (Tecan GmbH, Austria). Remaining metabolic activity of the cells in the biofilm was expressed for each well in percentage and calculated as follows:
[formula] where A is the absorbance of tested compound, ABL is the absorbance of negative control and AC is the absorbance of control untreated biofilm. The non-inoculated wells served as negative control. Inoculated wells not treated with compound served as positive control. Amphotericin B was used as control drug to ensure quality of Candida albicans. The values of remaining metabolic activity of treated biofilms are shown at Table 5.

[2] = in vitro; settings: human
How it was run: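 Peptides at 2-200 μmol.l^−1 incubated 1 h at 37 °C with 5% v/v human erythrocyte suspension in physiological solution. Released haemoglobin in supernatant read at 540 nm against buffer (0%) and 0.2% Triton X100 (100%) lysis controls. LC50 is the peptide concentration lysing 50% of cells.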

[3] = test system: C. glabrata ATCC 2001; assay: Lethal effect on yeast cells by plating test; assay type: cell-based, Candida glabrata; settings: 15 minutes exposure, peptide alone, FIG. 1B
Method: C. glabrata ATCC 2001 cells were aerobically cultivated at 30° C. on YPD medium (Formedium) overnight. A small volume of inoculum was added to fresh YPD medium to final concentration of cells 5×10^6 CFU/ml (corresponding value OD600=0.2). Yeast cells were cultivated at 30° C. (190 rpm) until they reach early exponential growth phase, usually further 4-5 h. Cells were harvested, washed twice with distilled water (1.5 min, 3000 g) and resuspended in MES-TEA buffer (10 mM 4-morpholineethanesulphonic acid, pH 6.0 adjusted with triethanolamine, both chemicals from Sigma-Aldrich) to OD600=0.2.
Cells from the early exponential growth phase were washed twice with sterile distilled water (1.5 min, 3000 g) and resuspended in MES-TEA buffer to OD600=0.2. The cell suspension was divided into 1 ml aliquots in Eppendorf tubes. One sample served as a control, the tested compounds (peptides, ODDC) were added in selected concentrations to the rest of samples. Cells were incubated with drugs with occasional gentle stirring for 15 minutes, then 10 μl of cells were diluted 100-fold in distilled water and 15 μl aliquots were spread on 2% YPD agar (Formedium) plates (diameter of Petri plate 9 cm). The samples were always plated in triplicates. The number of colonies was determined after 24-h incubation of the plates at 30° C. […]

[4] = test system: S. aureus (Liberec) biofilm; assay: Bacterial biofilm, remaining metabolic activity (MTT); assay type: cell-based, Staphylococcus aureus; settings: remaining metabolic activity of biofilm, 20 h
How it was run: (§1)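 Biofilms of S. aureus or P. aeruginosa (Liberec) were grown 24 h at 37° C with shaking in BHI plus 1% glucose from ca. 10^8 CFU/ml inocula. After washing, biofilms were exposed 20 h to peptides at 1–128 μmol.l^−1. Surviving metabolic activity was measured by MTT (40 min, formazan in DMSO, A540) as percent of untreated biofilm, blank-corrected.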

[5] = test system: P. aeruginosa (Liberec) biofilm; assay: as above; assay type: cell-based, Pseudomonas aeruginosa; settings: remaining metabolic activity of biofilm, 20 h
How it was run: as §1

[6] = peptide concentration 8 μmol · l^−1
[7] = peptide concentration 16 μmol · l^−1
[8] = peptide concentration 32 μmol · l^−1
[9] = peptide concentration 64 μmol · l^−1
[10] = peptide concentration 128 μmol · l^−1

Structure (SMILES): CC[C@@H](C)[C@@H](NC(=O)CN)C(=O)N[C@H](CCSC)C(=O)N[C@H](CO)C(=O)N[C@H](CO)C(=O)N[C@H](CC(C)C)C(=O)N[C@H](CCSC)C(=O)N[C@H](CCCCN)C(=O)N[C@H](CCCCN)C(=O)N[C@H](CC(C)C)C(=O)N[C@H](CCCCN)C(=O)N[C@H](CCCCN)C(=O)N[C@@H](C(=O)N[C@@H](C(=O)N[C@H](C)C(=O)N[C@H](CCCCN)C(N)=O)[C@H](C)CC)[C@H](C)CC [II] (HELM PEPTIDE1{G.[dI].[dM].[dS].[dS].[dL].[dM].[dK].[dK].[dL].[dK].[dK].[dI].[dI].[dA].[dK].[am]}$$$$V2.0)
- Metabolic activity of C. albicans (%) ([1]; peptide concentration 6.25 μmol · l^−1, 20 hours): 105.3%
- Metabolic activity of C. albicans (%) ([1]; peptide concentration 12.5 μmol · l^−1, 20 hours): 114.2%
- Metabolic activity of C. albicans (%) ([1]; peptide concentration 25 μmol · l^−1, 20 hours): 35.2%
- Metabolic activity of C. albicans (%) ([1]; peptide concentration 50 μmol · l^−1, 20 hours): 1.0%
- Metabolic activity of C. albicans (%) ([1]; peptide concentration 100 μmol · l^−1, 20 hours): 0.0%
- Metabolic activity of C. albicans (%) ([1]; peptide concentration 200 μmol · l^−1, 20 hours): 0.0%
- CC50 at 1 h [2]: > 400 µM
- antifungal (lethal) effect in plating test [3]: high antifungal effect
- Metabolic activity (%) S. aureus (Liberec) [4, 6]: 143.1%
- Metabolic activity (%) S. aureus (Liberec) [4, 7]: 138.8%
- Metabolic activity (%) S. aureus (Liberec) [4, 8]: 107.5%
- Metabolic activity (%) S. aureus (Liberec) [4, 9]: 29.9%
- Metabolic activity (%) S. aureus (Liberec) [4, 10]: 7.7%
- Metabolic activity (%) P. aeruginosa (Liberec) [5, 6]: 94.2%
- Metabolic activity (%) P. aeruginosa (Liberec) [5, 7]: 100.5%
- Metabolic activity (%) P. aeruginosa (Liberec) [5, 8]: 79.1%
- Metabolic activity (%) P. aeruginosa (Liberec) [5, 9]: 33.0%
- Metabolic activity (%) P. aeruginosa (Liberec) [5, 10]: 26.7%
